Measurements reported in patent publication US20180344726A1, “ABUSE RESISTANT TRANSDERMAL DELIVERY DEVICES AND COMPOSITIONS COMPRISING AN OPIOID AGONIST AND A NON-TRANSDERMALLY DELIVERED N-OXIDE DERIVATIVE OF AN OPIOID ANTAGONIST FOR THE TREATMENT OF PAIN” (priority 2015, published 2018).
“And” between values parts separate entries of the source, which are not always exact repeats. Identical values can stand only once. Like-named read-outs stand apart in the source and are kept apart here.

Columns and labels:
[1] = pKa analysis by pH-metric triple titration; assay type: physicochemical; details: […] C., […] KCl
Experimental: (§1) pKa analysis was performed using a pH-metric method. […] No precipitation or degradation was observed and two pKas were determined from the potentiometric data. Log P was determined using the potentiometric (pH-metric method). The sample was titrated in various ratios of octanol/water in two titrations covering the pH range 2.0-12.0 at concentrations of 1.9-1.1 mM. The shift of the aqueous pKas in the presence of octanol was used to determine the log P of the neutral species.

[2] = Log P by potentiometric (pH-metric) octanol/water titration; assay type: physicochemical; details: Neutral species, […] C., […] KCl
Experimental: as §1

[3] = Intrinsic in vitro skin permeation of saturated antagonist solutions (Franz cell); assay type: in vitro ADME; details: saturated donor solution pH 5.0, human skin
Experimental: The determination of in vitro skin permeation was performed with saturated solutions of the respective antagonist species. Therefore an excess of the antagonist was weighed in phosphate buffer of pH 5.0 and stirred overnight. pH was monitored and, if necessary, adjusted. The cells were incubated at 32° C. Solutions were filtrated through a syringe filter (1 μm PTFE) prior to application into the diffusion cells. Concentrations of the solutions were determined.
Diffusion cells (made of glass) with a vertical application and a volume of 5 ml were used. The human skin used for the analysis came from an aesthetic operation. Belly skin from female donors was supplied from plastic surgery. After arrival, skin was visually checked whether it was without any scars and stretch marks. A layer of 200-400 μm was cut with a dermatome. The permeation area of 0.82 cm^2 was punched out of the skin.
The diffusion cell consists of a donor chamber and a receptor compartment, the skin is fixed between both. The sampling and volume replacement were executed via an autosampler.

[4] = In vitro skin permeation from prototype transdermal patches (Franz cell); assay type: in vitro ADME, human; details: patches with naloxone N-oxide:opioid agonist 1:1, 3:1 or 5:1 by weight
Experimental: (§2) Naloxone N-oxide was incorporated into a prototype transdermal patch along with an opioid agonist. […] Batches of patches were prepared by weighing the appropriate amounts of the opioid agonist, Naloxone N-oxide and dry patch matrix of poly(meth)acrylate and dissolving in ethylacetate. The matrix solvent system was added and stirred for 30 minutes on a magnetic stirrer to yield a homogenous mixture. After mixing, the drug/polymer mixture was hand cast onto a release liner, Loparex Prime Liner FL 2000. Casting was carried out with a casting knife of variable width to achieve a target dry area weight matrix of 55 g/m^2. The cast was then dried at room temperature for 10 minutes, transferred to a convection oven and dried at 70° C. for 15 minutes and at 100° C. for 5 minutes. Finally the dried casts were hand-laminated with an occlusive backing, Scotchpak 9738, and patches were cut out of the laminate with 0.82 cm^2 cutting dies for skin permeation and 5 cm^2 for stability experiments.
The in vitro skin permeation of opioid agonist from each of the patches was tested using a Franz cell as described above.

[5] = Stability of prototype patches over 6 days at 60° C.; assay type: physicochemical
Experimental: as §2
The stability of each of the patches over 6 days at 60° C. was also tested.

[6] = +37° C.; for Mean concentration of Naloxone N-oxide in human plasma samples / Mean concentration of Naloxone N-oxide in human whole blood samples: mean of n=3; for Concentrations of Naloxone N-oxide in human plasma samples / Concentrations of Naloxone N-oxide in human whole blood samples: single replicates
Text: Analytical procedures followed were based on those outlined in the “Guideline on Bioanalytical Method Validation”, EMA, CHMP, EWP, July 2011 and “Reflection paper for laboratories that perform the analysis or evaluation of clinical trial samples, 28 Feb. 2012, EMA/INS/GCP/532137/2010” with reference to the “Guidance for Industry, Bioanalytical Method Validation” recommendations issued by the U.S. Department of Health and Human Services, Food and Drug Administration, Center for Drug Evaluation and Research (CDER), Center for Veterinary Medicine (CVM), May 2001, BP.
Control blank human plasma and blood containing K2EDTA as an anti-coagulant, was obtained from Clinical Trials Laboratory Service or BAS volunteers and was stored at nominally −20° C. and +4° C., respectively, when not in use. The mass spectrometer used was an Applied Biosystems AP15000 with the following settings:
All instrument control, data collection, peak area integration and storage was performed using Analyst (version 1.5.2). Peak areas were then imported into Watson LIMS (version 7.2.0.02) for regression and quantification. The mass spectrometer response (peak area ratio of analyte to internal standard) of each calibration standard was calculated by Watson LIMS and plotted against the nominal (prepared) concentration. A weighted (1/x^2) least squares linear regression analysis was used to calculate an equation of the calibration line.
Any concentrations below this level are reported as below the limit of quantification (BLQ). Samples with initial concentrations above the upper limit of quantification ([…]) were re-injected with a reduced injection volume (alongside QC High with reduced injection volume) and sample concentrations interpolated against a calibration curve injected with normal injection volume.

[7] = spiked with Naloxone-N-oxide 10 ng/mL, 0 minutes
[8] = spiked with Naloxone-N-oxide 10 ng/mL, 10 minutes
[9] = spiked with Naloxone-N-oxide 10 ng/mL, 20 minutes
[10] = spiked with Naloxone-N-oxide 10 ng/mL, 30 minutes
[11] = spiked with Naloxone-N-oxide 10 ng/mL, 45 minutes
[12] = spiked with Naloxone-N-oxide 10 ng/mL, 60 minutes
[13] = spiked with Naloxone-N-oxide 10 ng/mL, 120 minutes
[14] = spiked with Naloxone-N-oxide 50 ng/mL, 0 minutes
[15] = spiked with Naloxone-N-oxide 50 ng/mL, 10 minutes
[16] = spiked with Naloxone-N-oxide 50 ng/mL, 20 minutes

C=CC[N+]1([O-])CC[C@]23c4c5ccc(O)c4O[C@H]2C(=O)CC[C@@]3(O)[C@H]1C5 (stereo partly shown) [Naloxone N-oxide]
pKa ([1]; Type Acid): 8.55 ± 0.01 | pKa ([1]; Type Base): 2.96 ± 0.01 | logP [2]: −0.42 | Permeation through the skin (in words) [3]: Naloxone N-oxide did not permeate through the skin. | N-oxide permeated through the skin from patch [4]: no detectable levels | Impact on the stability of the patch [5]: does not impact on the stability of the patch | Conversion of Naloxone-N-oxide to Naloxone in plasma (in words) ([6]; 2 hour time course): small, but insignificant amount of conversion | Conversion to Naloxone in whole blood (in words) ([6]; 2 hour time course): rapidly converts to Naloxone in whole blood | Mean concentration of Naloxone N-oxide in human plasma samples [6, 7]: 10.0 ng/mL | Mean concentration of Naloxone N-oxide in human whole blood samples [6, 7]: 7.45 ng/mL | Concentrations of Naloxone N-oxide in human plasma samples [6, 7]: 9.93 ng/mL and 9.87 ng/mL and 10.2 ng/mL | Concentrations of Naloxone N-oxide in human whole blood samples [6, 7]: 7.95 ng/mL and 7.69 ng/mL and 6.70 ng/mL | Mean concentration of Naloxone N-oxide in human plasma samples [6, 8]: 10.2 ng/mL | Mean concentration of Naloxone N-oxide in human whole blood samples [6, 8]: 6.02 ng/mL | Concentrations of Naloxone N-oxide in human plasma samples [6, 8]: 9.61 ng/mL and 10.4 ng/mL and 10.7 ng/mL | Concentrations of Naloxone N-oxide in human whole blood samples [6, 8]: 5.94 ng/mL and 6.11 ng/mL and 6.01 ng/mL | Mean concentration of Naloxone N-oxide in human plasma samples [6, 9]: 10.3 ng/mL | Mean concentration of Naloxone N-oxide in human whole blood samples [6, 9]: 4.53 ng/mL | Concentrations of Naloxone N-oxide in human plasma samples [6, 9]: 10.6 ng/mL and 10.3 ng/mL and 9.93 ng/mL | Concentrations of Naloxone N-oxide in human whole blood samples [6, 9]: 4.70 ng/mL and 4.15 ng/mL and 4.75 ng/mL | Mean concentration of Naloxone N-oxide in human plasma samples [6, 10]: 9.96 ng/mL | Mean concentration of Naloxone N-oxide in human whole blood samples [6, 10]: 3.13 ng/mL | Concentrations of Naloxone N-oxide in human plasma samples [6, 10]: 9.37 ng/mL and 10.1 ng/mL and 10.4 ng/mL | Concentrations of Naloxone N-oxide in human whole blood samples [6, 10]: 2.77 ng/mL and 3.14 ng/mL and 3.47 ng/mL | Mean concentration of Naloxone N-oxide in human plasma samples [6, 11]: 10.4 ng/mL | Mean concentration of Naloxone N-oxide in human whole blood samples [6, 11]: 2.15 ng/mL | Concentrations of Naloxone N-oxide in human plasma samples [6, 11]: 10.7 ng/mL and 10.0 ng/mL and 10.4 ng/mL | Concentrations of Naloxone N-oxide in human whole blood samples [6, 11]: 2.18 ng/mL and 2.27 ng/mL and 2.01 ng/mL | Mean concentration of Naloxone N-oxide in human plasma samples [6, 12]: 10.3 ng/mL | Mean concentration of Naloxone N-oxide in human whole blood samples [6, 12]: 1.87 ng/mL | Concentrations of Naloxone N-oxide in human plasma samples [6, 12]: 10.3 ng/mL and 10.6 ng/mL and 10.1 ng/mL | Concentrations of Naloxone N-oxide in human whole blood samples [6, 12]: 1.79 ng/mL and 1.81 ng/mL and 2.02 ng/mL | Mean concentration of Naloxone N-oxide in human plasma samples [6, 13]: 10.3 ng/mL | Mean concentration of Naloxone N-oxide in human whole blood samples [6, 13]: 1.51 ng/mL | Concentrations of Naloxone N-oxide in human plasma samples [6, 13]: 10.4 ng/mL (2×) and 10.1 ng/mL | Concentrations of Naloxone N-oxide in human whole blood samples [6, 13]: 1.55 ng/mL and 1.57 ng/mL and 1.41 ng/mL | Mean concentration of Naloxone N-oxide in human plasma samples [6, 14]: 44.9 ng/mL | Mean concentration of Naloxone N-oxide in human whole blood samples [6, 14]: 45.4 ng/mL | Concentrations of Naloxone N-oxide in human plasma samples [6, 14]: 48.5 ng/mL and 45.6 ng/mL and 40.5 ng/mL | Concentrations of Naloxone N-oxide in human whole blood samples [6, 14]: 48.9 ng/mL and 41.3 ng/mL and 46.0 ng/mL | Mean concentration of Naloxone N-oxide in human plasma samples [6, 15]: 46.0 ng/mL | Mean concentration of Naloxone N-oxide in human whole blood samples [6, 15]: 25.9 ng/mL | Concentrations of Naloxone N-oxide in human plasma samples [6, 15]: 43.4 ng/mL and 48.7 ng/mL and 45.8 ng/mL | Concentrations of Naloxone N-oxide in human whole blood samples [6, 15]: 26.0 ng/mL and 25.0 ng/mL and 26.8 ng/mL | Mean concentration of Naloxone N-oxide in human plasma samples [6, 16]: 48.4 ng/mL | Mean concentration of Naloxone N-oxide in human whole blood samples [6, 16]: 20.4 ng/mL
